Laboratory results taken from ChEMBL document CHEMBL3639060, “Tetrahydropyrido-pyridine and tetrahydropyrido-pyrimidine compounds and use thereof as C5a receptor modulators” (2014).

Biological target: T1, C5a anaphylatoxin chemotactic receptor 1 (Homo sapiens, UniProt P21730)
T1 sequence (P21730 whole entry): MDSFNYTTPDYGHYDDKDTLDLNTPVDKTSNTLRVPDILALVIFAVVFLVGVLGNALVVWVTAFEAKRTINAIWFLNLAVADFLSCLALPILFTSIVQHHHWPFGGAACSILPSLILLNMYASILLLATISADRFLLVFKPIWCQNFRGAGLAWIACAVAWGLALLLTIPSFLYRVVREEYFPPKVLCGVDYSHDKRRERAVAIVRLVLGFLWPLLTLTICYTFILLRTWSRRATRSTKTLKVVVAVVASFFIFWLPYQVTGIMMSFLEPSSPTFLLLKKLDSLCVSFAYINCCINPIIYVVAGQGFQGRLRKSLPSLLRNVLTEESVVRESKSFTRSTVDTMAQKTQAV
Test: FLIPR Assay: Compounds were tested for their ability to inhibit C5a-mediated calcium mobilization using a stable cell line over expressing the human C5aR & the Galpha 15 protein on the FLIPR (Fluorescent Imaging Plate Reader) Tetra system. Cells were maintained in culture media containing DMEM (Dulbecco's Modified Eagle Medium) with 4.5 g/L glucose, 10% fetal bovine serum, 100 U/mL, 1x non-essential amino acid, and 250 ug/mL G418 (Geneticin). Prior to testing of compounds, cells were plated at 10,000 cells/well in clear bottom 384-well black plate, and incubated overnight at 37C. with 5% CO2. On the day of experiment, culture media was removed, and replaced with assay buffer HBSS (Hanks' Balanced Salt Solution) with 20 mM HEPES (4-(2-hydroxyethyl)-1-piperazineethanesulfonic acid) and 0.1% BSA (bovine serum albumin) BSA containing calcium 5 dye (Molecular Devices) and 2.5 mM probenecid. After 1 hour incubation at 37C., 5% CO2 for 60 min, cells were pre-incubated with compounds for 30 minutes.
Format: functional

SMILES | IC50 [nM]
CO[C@H]1CCN(c2nc(-c3c(Cl)cnc4[nH]ccc34)nc3c2CN(c2cc(C4CC4)ccc2C)CC3)CC1(C)C | 47
CO[C@@H]1CCN(c2nc(-c3c(C)ccc4[nH]nc(C)c34)nc3c2CN(c2c(Cl)c(C(C)C)nn2C)CC3)[C@H](C)C1 | 2
